Test results reported in ChEMBL document CHEMBL3886489, “Fused pyrazole derivatives as novel ERK inhibitors” (2016).

Target: Mitogen-activated protein kinase 1 (Mus musculus, UniProt P63085)
Experiment: TdF (Temperature Dependence Fluorescence) Assay: The SAR (Structure Activity Relationship) for ERK ligands covered by this invention was interrogated using the TdF (Temperature Dependence Fluorescence) assay or best known as thermal shift assay. (M. W. Pantoliano, et al., "High-density miniaturized thermal shift assays as a general strategy for drug discovery," J. Biomol. Screen 6 (2001) 429-440) The TdF assay was mainly conducted in the 96-well based CHROMO-4 real time fluorescence plate reader (BioRad). The Sypro Orange (Sigma-Aldrich), environmentally sensitive fluorescence dye, was used to monitor the protein folding-unfolding transition. Protein-ligand binding was gauged by the change (or shift) in the unfolding transition temperature (ΔTm) acquired at protein alone with respect to protein in the presence of ligand of interest.Compound of interest was first prepared in DMSO stock (typical concentration: 10 mM). […] Final percentage of DMSO resided in the sample was 2%. The sample plate was heated from 30° C. to 90° C. with thermal ramping rate of 1° C./min.

Chain of Mitogen-activated protein kinase 1 (P63085 whole entry): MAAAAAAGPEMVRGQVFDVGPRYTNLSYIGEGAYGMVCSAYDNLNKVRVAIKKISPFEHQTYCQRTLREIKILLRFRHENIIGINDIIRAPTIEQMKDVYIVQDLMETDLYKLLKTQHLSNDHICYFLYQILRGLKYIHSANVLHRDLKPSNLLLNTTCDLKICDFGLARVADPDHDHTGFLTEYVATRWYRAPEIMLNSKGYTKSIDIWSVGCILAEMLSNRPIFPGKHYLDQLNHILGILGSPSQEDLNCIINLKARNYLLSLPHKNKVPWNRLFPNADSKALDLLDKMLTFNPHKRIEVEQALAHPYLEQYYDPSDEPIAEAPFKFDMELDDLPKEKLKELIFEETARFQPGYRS

- Kd: 6 nM
Structure (SMILES): O=C(N[C@H]1CNC[C@@H]1c1ccccc1)N1CCc2[nH]nc(-c3ccncc3)c2C1 (racemic)
